Tested on: bradykinin peptides BK-(1-7), BK-(1-9)
Assay: Bradykinin peptide levels in blood and tissues of non-diabetic and streptozotocin-diabetic (mRen-2)27 rats after 16 weeks aliskiren
Assay type: in vivo, transgenic (mRen-2)27 rats
Details: for Effect of aliskiren on BK-(1-7) level / Effect of aliskiren on BK-(1-9) level / Effect of aliskiren on BK-(1-7)/(1-9) ratio: 10 mg/kg/day 16 weeks, 10 mg/kg/day; for Heart BK-(1-7), Mean ± SEM / Heart BK-(1-7)/(1-9) ratio, Mean ± SEM / Heart BK-(1-9), Mean ± SEM: aliskiren 10 mg/kg/day 16 weeks
Experimental: As an example, diabetes is induced in 6 week old female heterozygous transgenic (mRen-2)27 rats by administration of 55 mg/kg streptozotocin diluted in […], pH 4.5 by tail vein injection. Non-diabetic rats are injected with citrate buffer alone [Campbell D J, Kelly D J, Wilkinson-Berka J L, Cooper M E, Skinner S L. Increased bradykinin and “normal” angiotensin peptide levels in diabetic Sprague-Dawley and transgenic (mRen-2)27 rats. Kidney Int 1999; 56:211-221.1. Diabetic and non-diabetic rats are randomized to receive either no drug or aliskiren (10 mg/kg/day by osmotic minipump) from 6-7 weeks of age for a duration of 16 weeks. The minipumps are changed every 2 weeks and the amount of aliskiren in the minipumps is adjusted according to the body weight of the rats. Diabetic rats are injected subcutaneously with 2-4 units insulin (Ultratard, Novo Nordisk, Denmark).every second day (3 times a week). If rats have continuously elevated blood glucose levels (>33.3 mmol/L) over a couple of weeks, they are injected with 3 units every day. When glucose levels decrease to 33.3 mmol/L they are administered 2-4 units insulin every second day. After 16 weeks drug treatment, rats are anesthetized with ketamine (75 mg/kg) and xylazine (10 mg/kg) in combination, and blood and tissue is collected for peptide assay. Peptides are measured as previously described [Lawrence A C, Evin G, Kladis A, Campbell D J. An alternative strategy for the radioimmunoassay of angiotensin peptides using amino-terminal-directed antisera: measurement of eight angiotensin peptides in human plasma. J Hypertens 1990; 8:715-724; Campbell D J, Lawrence A C, Towrie A, Kladis A, Valentijn A J. Differential regulation of angiotensin peptide levels in plasma and kidney of the rat. Hypertension 1991; 18:763-773; Campbell D J, Kladis A, Duncan A-M. Nephrectomy, converting enzyme inhibition and angiotensin peptides. Hypertension 1993; 22:513-522; Campbell D J, Kladis A, Duncan A-M. Bradykinin peptides in kidney, blood, and other tissues of the rat. Hypertension 1993; 21:155-165; Campbell D J, Kladis A, Duncan A-M. Effects of converting enzyme inhibitors on angiotensin and bradykinin peptides. Hypertension 1994; 23:439-449; Campbell D J, Rong P, Kladis A, Rees B, Skinner S L. Angiotensin and bradykinin peptides in the TGR(mRen-2)27 rat. Hypertension 1995; 25:1014-1020]. Only the left kidney is collected for peptide assay. The heart refers to the cardiac ventricles (both right and left ventricle). The Ang I levels in heart are below the limit of detection of the assay.
There are 4 groups of rats: • 1. Non-diabetic control. • 2. Non-diabetic administered aliskiren 10 mg/kg/day. • 3. Diabetic control. • 4. Diabetic administered aliskiren 10 mg/kg/day.

[1] = Heart, control rats, listed as Aliskiren
[2] = Heart, diabetic rats, listed as Aliskiren

COCCCOc1cc(C[C@@H](C[C@H](N)[C@@H](O)C[C@H](C(=O)NCC(C)(C)C(N)=O)C(C)C)C(C)C)ccc1OC [aliskiren, 2(S),4(S),5(S),7(S)-N-(3-amino-2,2-dimethyl-3-oxopropyl)-2,7-di(1-methylethyl)-4-hydroxy-5-amino-8-[4-methoxy-3-(3-methoxy-propoxy)phenyl]-octanamide]
Effect of aliskiren on BK-(1-7) level (Blood, control rats): does not affect
Effect of aliskiren on BK-(1-9) level (Blood, control rats): does not affect
Effect of aliskiren on BK-(1-7) level (Blood, diabetic rats): does not affect
Effect of aliskiren on BK-(1-7)/(1-9) ratio (Blood, diabetic rats): increase
Effect of aliskiren on BK-(1-9) level (Blood, diabetic rats): does not affect
Effect of aliskiren on BK-(1-7) level (Brain, control rats): does not affect
Effect of aliskiren on BK-(1-9) level (Brain, control rats): does not affect
Effect of aliskiren on BK-(1-7) level (Brain, diabetic rats): does not affect
Effect of aliskiren on BK-(1-9) level (Brain, diabetic rats): does not affect
Effect of aliskiren on BK-(1-7) level (Heart, control rats): increased
Effect of aliskiren on BK-(1-7)/(1-9) ratio (Heart, control rats): did not affect
Effect of aliskiren on BK-(1-9) level (Heart, control rats): increased
Effect of aliskiren on BK-(1-7) level [1]: increase
Effect of aliskiren on BK-(1-7)/(1-9) ratio [1]: no change
Effect of aliskiren on BK-(1-9) level [1]: increase
Heart BK-(1-7), Mean ± SEM (Heart, control rats): 19.2 ± 2.5 fmol/g
Heart BK-(1-7)/(1-9) ratio, Mean ± SEM (Heart, control rats): 1.88 ± 0.18 mol/mol
Heart BK-(1-9), Mean ± SEM (Heart, control rats): 10.6 ± 1.2 fmol/g
Effect of aliskiren on BK-(1-7) level (Heart, diabetic rats): increased
Effect of aliskiren on BK-(1-7)/(1-9) ratio (Heart, diabetic rats): did not affect
Effect of aliskiren on BK-(1-9) level (Heart, diabetic rats): increased
Effect of aliskiren on BK-(1-7) level [2]: increase
Effect of aliskiren on BK-(1-7)/(1-9) ratio [2]: no change
Effect of aliskiren on BK-(1-9) level [2]: increase
Heart BK-(1-7), Mean ± SEM (Heart, diabetic rats): 13.9 ± 1.5 fmol/g
Heart BK-(1-7)/(1-9) ratio, Mean ± SEM (Heart, diabetic rats): 2.47 ± 0.37 mol/mol
Heart BK-(1-9), Mean ± SEM (Heart, diabetic rats): 6.4 ± 0.7 fmol/g
Effect of aliskiren on BK-(1-7) level (Kidney, control rats): does not affect
Effect of aliskiren on BK-(1-9) level (Kidney, control rats): does not affect
Effect of aliskiren on BK-(1-7) level (Kidney, diabetic rats): does not affect
Effect of aliskiren on BK-(1-9) level (Kidney, diabetic rats): does not affect
Effect of aliskiren on BK-(1-7) level (Lung, control rats): does not affect
Effect of aliskiren on BK-(1-9) level (Lung, control rats): does not affect
Effect of aliskiren on BK-(1-7) level (Lung, diabetic rats): does not affect
Effect of aliskiren on BK-(1-9) level (Lung, diabetic rats): does not affect

— patent US20100292335A1, “USE OF ORGANIC COMPOUNDS” (priority 2007, published 2010)
